Tests used:
Conditions in all cases: substance 10^−9M
primary murine T-cells = experiment: Cytokine secretion on protein level in activated primary murine T-cells (13-plex FACS / Luminex, supernatant); format: cell-based, C57BL/6 mice
In short: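 T-cells from secondary lymphatic organs of naïve C57BL/6 mice, stimulated with PMA/Ionomycin or IFN-γ; supernatant cytokines measured by 13-plex FACS 48 h and 72 h after stimulation. In another run, PMA/Ionomycin-stimulated cells received compounds at 10^−7, 10^−9 and 10^−11 M, with IFN-γ, IL-17 and IL-10 measured by Luminex.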

primary human T-cells = experiment: Cytokine secretion on protein level in activated primary human T-cells (13-plex FACS / Luminex, supernatant); format: cell-based
In short: (§1)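 Stimulus: PMA/Ionomycin or IFN-γ, 48 h; cells: HaCaT or human peripheral-blood T-cells; tripeptide treatment; readout: supernatant cytokines via 13-plex FACS or Luminex, 48–72 h post-stimulation.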

[1] = test system: human keratinocyte cell line (HaCaT); experiment: Cytokine secretion on protein level in activated human keratinocyte cell line HaCaT (13-plex FACS / Luminex, supernatant); format: cell-based
In short: as §1

[2] = primary murine T-cells stimulated with IFN-γ
[3] = primary murine T-cells stimulated with PBS
[4] = primary murine T-cells stimulated with PMA/Ionomycin
[5] = primary human T-cells stimulated with IFN-γ
[6] = primary human T-cells stimulated with PBS
[7] = primary human T-cells stimulated with PMA/Ionomycin
[8] = HaCaT stimulated with PMA/Ionomycin

COc1c(C)c2c(c(O)c1C/C=C(\C)CCC(=O)OCCN1CCOCC1)C(=O)OC2 [MMF, mycophenolate mofetil, reference compound]
IL-1 cytokine concentration (primary murine T-cells; [2]): 100.02 pg/mL | IL-2 cytokine concentration (primary murine T-cells; [2]): 79.63 pg/mL | IL-4 cytokine concentration (primary murine T-cells; [2]): 59.48 pg/mL | IL-5 cytokine concentration (primary murine T-cells; [2]): 254.61 pg/mL | IL-6 cytokine concentration (primary murine T-cells; [2]): 111.95 pg/mL | IL-10 cytokine concentration (primary murine T-cells; [2]): 936.45 pg/mL | IL-13 cytokine concentration (primary murine T-cells; [2]): 0 pg/mL | IL-17 cytokine concentration (primary murine T-cells; [2]): 61.58 pg/mL | IL-21 cytokine concentration (primary murine T-cells; [2]): 0 pg/mL | IL-22 cytokine concentration (primary murine T-cells; [2]): 55.98 pg/mL | IL-27 cytokine concentration (primary murine T-cells; [2]): 40.8 pg/mL | TNF-α cytokine concentration (primary murine T-cells; [2]): 33.64 pg/mL | IFN-γ cytokine concentration (primary murine T-cells; [3]): 0 pg/mL | IL-1 cytokine concentration (primary murine T-cells; [3]): 62.31 pg/mL | IL-2 cytokine concentration (primary murine T-cells; [3]): 100.77 pg/mL | IL-4 cytokine concentration (primary murine T-cells; [3]): 61.12 pg/mL | IL-5 cytokine concentration (primary murine T-cells; [3]): 337.89 pg/mL | IL-6 cytokine concentration (primary murine T-cells; [3]): 90.56 pg/mL | IL-10 cytokine concentration (primary murine T-cells; [3]): 745.12 pg/mL | IL-13 cytokine concentration (primary murine T-cells; [3]): 0 pg/mL | IL-17 cytokine concentration (primary murine T-cells; [3]): 0 pg/mL | IL-21 cytokine concentration (primary murine T-cells; [3]): 0 pg/mL | IL-22 cytokine concentration (primary murine T-cells; [3]): 90.45 pg/mL | IL-27 cytokine concentration (primary murine T-cells; [3]): 80.11 pg/mL | TNF-α cytokine concentration (primary murine T-cells; [3]): 88.47 pg/mL | IFN-γ cytokine concentration (primary murine T-cells; [4]): 1808.99 pg/mL | IL-1 cytokine concentration (primary murine T-cells; [4]): 158.59 pg/mL | IL-2 cytokine concentration (primary murine T-cells; [4]): 109.88 pg/mL | IL-4 cytokine concentration (primary murine T-cells; [4]): 64.89 pg/mL | IL-5 cytokine concentration (primary murine T-cells; [4]): 200.98 pg/mL | IL-6 cytokine concentration (primary murine T-cells; [4]): 169.84 pg/mL | IL-10 cytokine concentration (primary murine T-cells; [4]): 995.6 pg/mL | IL-13 cytokine concentration (primary murine T-cells; [4]): 0 pg/mL | IL-17 cytokine concentration (primary murine T-cells; [4]): 67 pg/mL | IL-21 cytokine concentration (primary murine T-cells; [4]): 0 pg/mL | IL-22 cytokine concentration (primary murine T-cells; [4]): 111.98 pg/mL | IL-27 cytokine concentration (primary murine T-cells; [4]): 102.96 pg/mL | TNF-α cytokine concentration (primary murine T-cells; [4]): 50.14 pg/mL | IL-1 cytokine concentration (primary human T-cells; [5]): 0 pg/mL | IL-2 cytokine concentration (primary human T-cells; [5]): 0 pg/mL | IL-4 cytokine concentration (primary human T-cells; [5]): 0 pg/mL | IL-5 cytokine concentration (primary human T-cells; [5]): 0 pg/mL | IL-6 cytokine concentration (primary human T-cells; [5]): 62.15 pg/mL | IL-9 cytokine concentration (primary human T-cells; [5]): 0 pg/mL | IL-10 cytokine concentration (primary human T-cells; [5]): 0 pg/mL | IL-12 cytokine concentration (primary human T-cells; [5]): 0 pg/mL | IL-13 cytokine concentration (primary human T-cells; [5]): 0 pg/mL | IL-17 cytokine concentration (primary human T-cells; [5]): 0 pg/mL | IL-22 cytokine concentration (primary human T-cells; [5]): 0 pg/mL | TNF-α cytokine concentration (primary human T-cells; [5]): 0 pg/mL | IFN-γ cytokine concentration (primary human T-cells; [6]): 0 pg/mL | IL-1 cytokine concentration (primary human T-cells; [6]): 0 pg/mL | IL-2 cytokine concentration (primary human T-cells; [6]): 39.68 pg/mL | IL-4 cytokine concentration (primary human T-cells; [6]): 0 pg/mL | IL-5 cytokine concentration (primary human T-cells; [6]): 0 pg/mL | IL-6 cytokine concentration (primary human T-cells; [6]): 94.62 pg/mL | IL-9 cytokine concentration (primary human T-cells; [6]): 28.13 pg/mL | IL-10 cytokine concentration (primary human T-cells; [6]): 79.26 pg/mL | IL-12 cytokine concentration (primary human T-cells; [6]): 0 pg/mL | IL-13 cytokine concentration (primary human T-cells; [6]): 79.09 pg/mL | IL-17 cytokine concentration (primary human T-cells; [6]): 71.42 pg/mL | IL-22 cytokine concentration (primary human T-cells; [6]): 0 pg/mL | TNF-a cytokine concentration (primary human T-cells; [6]): 53.91 pg/mL | IFN-γ cytokine concentration (primary human T-cells; [7]): 9491.25 pg/mL | IL-1 cytokine concentration (primary human T-cells; [7]): 505.05 pg/mL | IL-2 cytokine concentration (primary human T-cells; [7]): 1498.52 pg/mL | IL-4 cytokine concentration (primary human T-cells; [7]): 29.49 pg/mL | IL-5 cytokine concentration (primary human T-cells; [7]): 309.88 pg/mL | IL-6 cytokine concentration (primary human T-cells; [7]): 1198.6 pg/mL | IL-9 cytokine concentration (primary human T-cells; [7]): 339.89 pg/mL | IL-10 cytokine concentration (primary human T-cells; [7]): 814.79 pg/mL | IL-12 cytokine concentration (primary human T-cells; [7]): 0 pg/mL | IL-13 cytokine concentration (primary human T-cells; [7]): 1072.09 pg/mL | IL-17 cytokine concentration (primary human T-cells; [7]): 1097.19 pg/mL | IL-22 cytokine concentration (primary human T-cells; [7]): 0 pg/mL | TNF-a cytokine concentration (primary human T-cells; [7]): 3987.21 pg/mL | IL-1 cytokine concentration ([1]; HaCaT stimulated with IFN-γ): 0 pg/mL | IL-2 cytokine concentration ([1]; HaCaT stimulated with IFN-γ): 0 pg/mL | IL-4 cytokine concentration ([1]; HaCaT stimulated with IFN-γ): 33.01 pg/mL | IL-5 cytokine concentration ([1]; HaCaT stimulated with IFN-γ): 0 pg/mL | IL-6 cytokine concentration ([1]; HaCaT stimulated with IFN-γ): 239.05 pg/mL | IL-9 cytokine concentration ([1]; HaCaT stimulated with IFN-γ): 0 pg/mL | IL-10 cytokine concentration ([1]; HaCaT stimulated with IFN-γ): 0 pg/mL | IL-12 cytokine concentration ([1]; HaCaT stimulated with IFN-γ): 0 pg/mL | IL-13 cytokine concentration ([1]; HaCaT stimulated with IFN-γ): 0 pg/mL | IL-17 cytokine concentration ([1]; HaCaT stimulated with IFN-γ): 58.48 pg/mL | IL-22 cytokine concentration ([1]; HaCaT stimulated with IFN-γ): 0 pg/mL | TNF-α cytokine concentration ([1]; HaCaT stimulated with IFN-γ): 0 pg/mL | IFN-γ cytokine concentration ([1]; HaCaT stimulated with PBS): 0 pg/mL | IL-1 cytokine concentration ([1]; HaCaT stimulated with PBS): 0 pg/mL | IL-2 cytokine concentration ([1]; HaCaT stimulated with PBS): 0 pg/mL | IL-4 cytokine concentration ([1]; HaCaT stimulated with PBS): 120.89 pg/mL | IL-5 cytokine concentration ([1]; HaCaT stimulated with PBS): 0 pg/mL | IL-6 cytokine concentration ([1]; HaCaT stimulated with PBS): 39.58 pg/mL | IL-9 cytokine concentration ([1]; HaCaT stimulated with PBS): 0 pg/mL | IL-10 cytokine concentration ([1]; HaCaT stimulated with PBS): 33.26 pg/mL | IL-12 cytokine concentration ([1]; HaCaT stimulated with PBS): 0 pg/mL | IL-13 cytokine concentration ([1]; HaCaT stimulated with PBS): 0 pg/mL | IL-17 cytokine concentration ([1]; HaCaT stimulated with PBS): 0 pg/mL | IL-22 cytokine concentration ([1]; HaCaT stimulated with PBS): 0 pg/mL | TNF-α cytokine concentration ([1]; HaCaT stimulated with PBS): 0 pg/mL | IFN-γ cytokine concentration [1, 8]: 0 pg/mL | IL-1 cytokine concentration [1, 8]: 0 pg/mL | IL-2 cytokine concentration [1, 8]: 0 pg/mL | IL-4 cytokine concentration [1, 8]: 98.71 pg/mL | IL-5 cytokine concentration [1, 8]: 0 pg/mL | IL-6 cytokine concentration [1, 8]: 116.51 pg/mL | IL-9 cytokine concentration [1, 8]: 0 pg/mL | IL-10 cytokine concentration [1, 8]: 66.23 pg/mL | IL-12 cytokine concentration [1, 8]: 0 pg/mL | IL-13 cytokine concentration [1, 8]: 0 pg/mL | IL-17 cytokine concentration [1, 8]: 0 pg/mL | IL-22 cytokine concentration [1, 8]: 0 pg/mL | TNF-α cytokine concentration [1, 8]: 0 pg/mL
